Each compound was assayed against T1, human FXR (Homo sapiens, UniProt Q96RI1) (assay: transient human FXR/Gal4-luciferase reporter assay). Settings: Gal4-hFXR transfected HEK293 reporter cells; relative to 8 μM GW-4064.
T1 construct: expressed in transfected cells; host or cells: HEK293 cells stably carrying a 5xGal4-response-element firefly luciferase reporter, transiently transfected with pcDNA3.1-Gal4-FXR
T1 sequence (Q96RI1 262-486 limits assumed): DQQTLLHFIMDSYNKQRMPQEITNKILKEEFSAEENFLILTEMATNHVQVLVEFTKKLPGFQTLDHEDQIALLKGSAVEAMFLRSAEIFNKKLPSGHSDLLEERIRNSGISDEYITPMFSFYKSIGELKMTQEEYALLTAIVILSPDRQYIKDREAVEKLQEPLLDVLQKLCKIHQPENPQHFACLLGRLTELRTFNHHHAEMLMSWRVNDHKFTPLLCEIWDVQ
Assay type: cell-based
Protocol: A Gal4-hFXR fusion construct reporter system was used as the primary assay to characterize compound activity. A construct including 5 copies of the Gal4 promoter response element upstream of a firefly luciferase reporter cDNA was stably expressed in HEK293 cells. This reporter cell line was maintained in Dulbecco's Modified Eagle's medium (DMEM; Gibco) supplemented with 1% penicillin-streptomycin (P/S) solution, 500 μg/mL Zeocin and 10% charcoal/dextran-treated fetal bovine serum (cs-FBS) at 37° C. in a humidified 5% CO2 atmosphere. Another plasmid was constructed in which the human cytomegalovirus promoter in the pcDNA3.1 vector directs the expression of the cDNA encoding a fusion protein comprised of the DNA binding domain from the Gal4 transcription factor fused to the ligand binding domain from human FXR.
The day prior to transfection, the reporter cells in culture are detached from the plate with trypsin and plated into a T75 flask at a sufficient density to achieve approximately 90% confluence the next morning. The transfection reagents are prepared by separately diluting 25 μg of the pcDNA3.1-Gal4-FXR plasmid into 1.87 mL of Opti-MEM (Thermo-Fisher), and 40 μL of Lipofectamine 2000 (Thermo-Fisher) into 1.87 mL of Opti-MEM, and then adding the diluted DNA solution into the diluted Lipofectamine 2000 solution and incubating at room temperature for 15-20 minutes. The mixture is further diluted with 10 mL of a solution comprised of DMEM, 10% cs-FBS, and 1% P/S immediately prior to transferring to the cells. The maintenance culture media is aspirated from the cells and the final transfection mixture is added before the cells are incubated overnight at 37° C. in a humidified 5% CO2 atmosphere. This protocol can be scaled up, and the transiently transfected cells can be cryopreserved in an assay-ready format.
For compound testing, 100 nL of the compounds (serial dilutions in DMSO) are dispensed with an Echo acoustic dispenser (Labcyte) into the wells of a Corning/Costar clear bottom 384-well white plate. The transfected cells are harvested, counted, and diluted such that 10-25,000 cells in 25 μL are plated into each well of the 384-well compound assay plate. The compound-treated cells are incubated overnight at 37° C. in a humidified 5% CO2 atmosphere.

Question: How did the EC50 turn out when `O=C(O)c1ccc2cc(N3CCC4(C=C(c5c(-c6cccnc6C(F)(F)F)noc5C5CC5)C4)CC3)ccc2n1` [Example 153, 6-(2-(5-Cyclopropyl-3-(2-(trifluoromethyl)pyridin-3-yl)isoxazol-4-yl)-7-azaspiro[3.5]non-1-en-7-yl)quinoline-2-carboxylic acid] was run?
Answer: The EC50 was 1.28 µM.

Question: How did the EC50 turn out when `O=C(O)c1cc(F)c2nc(N3CCC4(C=C(c5c(-c6c(Cl)cc(F)cc6Cl)noc5C5CC5)C4)CC3)sc2c1` [Example 48, 2-(2-(5-Cyclopropyl-3-(2,6-dichloro-4-fluorophenyl)isoxazol-4-yl)-7-azaspiro[3.5]non-1-en-7-yl)-4-fluorobenzo[d]thiazole-6-carboxylic acid] was run?
Answer: The EC50 was 0.115 µM.

Question: `O=C(O)c1ccc(N2CCC3(C=C(c4c(-c5ccccc5C(F)(F)F)noc4C4CC4)C3)CC2)nc1` [Example 30, 6-(2-(5-Cyclopropyl-3-(2-(trifluoromethyl)phenyl)isoxazol-4-yl)-7-azaspiro[3.5]non-1-en-7-yl) nicotinic acid] was tested. Which EC50 did it give?
Answer: Its EC50 is 0.11 µM.

Question: For `Cn1nc(C(=O)O)c2ccc(N3CCC4(C=C(c5c(-c6ccccc6OC(F)(F)F)noc5C5CC5)C4)CC3)cc21` [Example 165, 6-(2-(5-Cyclopropyl-3-(2-(trifluoromethoxy)phenyl)isoxazol-4-yl)-7-azaspiro[3.5]non-1-en-7-yl)-1-methyl-1H-indazole-3-carboxylic acid], which EC50 is on record?
Answer: Its EC50 is 2.98 µM.

Question: For `O=C(O)c1cc(F)c2nc(N3CCC4(CC3)COC(c3c(-c5ccccc5OC(F)(F)F)noc3C3CC3)O4)sc2c1` (stereo not drawn) [Example 42, 2-(2-(5-cyclopropyl-3-(2-(trifluoromethoxy)phenyl)isoxazol-4-yl)-1,3-dioxa-8-azaspiro[4.5]decan-8-yl)-4-fluorobenzo[d]thiazole-6-carboxylic acid], which EC50 is on record?
Answer: Its EC50 is 1 µM.

Question: For `CS(=O)(=O)NC(=O)c1cc(F)c2nc(N3CCC4(C=C(c5c(-c6c(Cl)cncc6Cl)noc5C5CC5)C4)CC3)sc2c1` [Example 182, 2-(2-(5-Cyclopropyl-3-(3,5-dichloropyridin-4-yl)isoxazol-4-yl)-7-azaspiro[3.5]non-1-en-7-yl)-4-fluoro-N-(methylsulfonyl)benzo[d]thiazole-6-carboxamide], which EC50 is on record?
Answer: Its EC50 is 0.688 µM.

Question: How did the EC50 turn out when `Cc1nc(C(=O)O)c2ccc(N3CCC4(C=C(c5c(-c6c(Cl)cccc6Cl)noc5C5CC5)C4)CC3)cn12` [Example 127, 6-(2-(5-Cyclopropyl-3-(2,6-dichlorophenyl)isoxazol-4-yl)-7-azaspiro[3.5]non-1-en-7-yl)-3-methylimidazo[1,5-a]pyridine-1-carboxylic acid] was run?
Answer: Its EC50 is 0.267 µM.

Question: With `O=C(O)c1cccc(COC2CCC3(CC2)CC(O)(c2c(-c4c(Cl)cccc4Cl)noc2C2CC2)C3)c1` (stereo not drawn) [Example 206, 3-(((2-(5-Cyclopropyl-3-(2,6-dichlorophenyl)isoxazol-4-yl)-2-hydroxyspiro[3.5]nonan-7-yl)oxy)methyl)benzoic acid] as the compound, how does the EC50 read?
Answer: Its EC50 is 4.71 µM.

Question: With `CC(C)Oc1cc(C(=O)O)nc2ccc(N3CCC4(C=C(c5c(-c6c(Cl)cncc6Cl)noc5C5CC5)C4)CC3)cc12` [Example 111, 6-(2-(5-Cyclopropyl-3-(3,5-dichloropyridin-4-yl)isoxazol-4-yl)-7-azaspiro[3.5]non-1-en-7-yl)-4-isopropoxyquinoline-2-carboxylic acid] as the compound, how does the EC50 read?
Answer: Its EC50 is 0.047 µM.

Question: How did the EC50 turn out when `O=C(O)COc1cnc2ccc(N3CCC4(C=C(c5c(-c6c(Cl)cccc6Cl)noc5C5CC5)C4)CC3)cc2n1` [Example 130, 2-((7-(2-(5-Cyclopropyl-3-(2,6-dichlorophenyl)isoxazol-4-yl)-7-azaspiro[3.5]non-1-en-7-yl)quinoxalin-2-yl)oxy)acetic acid] was run?
Answer: Its EC50 is 0.373 µM.

Question: `Cn1nc(C#N)c2ccc(N3CCC4(C=C(c5c(-c6ccccc6OC(F)(F)F)noc5C5CC5)C4)CC3)cc21` [Example 175, 6-(2-(5-Cyclopropyl-3-(2-(trifluoromethoxy)phenyl)isoxazol-4-yl)-7-azaspiro[3.5]non-1-en-7-yl)-1-methyl-1H-indazole-3-carbonitrile] was tested. Which EC50 did it give?
Answer: Its EC50 is 3.24 µM.

Question: Which EC50 does the source give for `O=C(O)c1cc(F)c2nc(N3CCC4(C=C(c5c(-c6c(F)cccc6Cl)noc5C5CC5)C4)CC3)sc2c1` [Example 136, 2-(2-(3-(2-Chloro-6-fluorophenyl)-5-cyclopropylisoxazol-4-yl)-7-azaspiro[3.5]non-1-en-7-yl)-4-fluorobenzo[d]thiazole-6-carboxylic acid] here?
Answer: The EC50 was 0.037 µM.

Question: With `O=C(O)c1cc(OC(F)F)c2cc(N3CCC4(C=C(c5c(-c6ncccc6Cl)noc5C5CC5)C4)CC3)ccc2n1` [Example 78, 6-(2-(3-(3-Chloropyridin-2-yl)-5-cyclopropylisoxazol-4-yl)-7-azaspiro[3.5]non-1-en-7-yl)-4-(difluoromethoxy)quinoline-2-carboxylic acid] as the compound, how does the EC50 read?
Answer: The EC50 was 0.121 µM.

Question: How did the EC50 turn out when `O=C(O)c1ccc(N2CCC3(C=C(c4c(-c5c(Cl)cncc5Cl)noc4C4CC4)C3)CC2)nc1` [Example 66, 6-(2-(5-Cyclopropyl-3-(3,5-dichloropyridin-4-yl)isoxazol-4-yl)-7-azaspiro[3.5]non-1-en-7-yl)nicotinic acid] was run?
Answer: Its EC50 is 0.342 µM.

Question: Which EC50 does the source give for `COc1cc(N2CCC3(C=C(c4c(-c5c(Cl)cncc5Cl)noc4C4CC4)C3)CC2)ncc1C(=O)O` [Example 76, 6-(2-(5-Cyclopropyl-3-(3,5-dichloropyridin-4-yl)isoxazol-4-yl)-7-azaspiro[3.5]non-1-en-7-yl)-4-methoxynicotinic acid] here?
Answer: The EC50 was 2.15 µM.

Question: Which EC50 does the source give for `O=C(O)c1cc2ccc(N3CCC4(C=C(c5c(-c6c(F)cccc6Cl)noc5C5CC5)C4)CC3)cc2nn1` [Example 56, 7-(2-(3-(2-Chloro-6-fluorophenyl)-5-cyclopropylisoxazol-4-yl)-7-azaspiro[3.5]non-1-en-7-yl)cinnoline-3-carboxylic acid] here?
Answer: The EC50 was 0.194 µM.

Question: With `O=C(O)c1cc(C(F)(F)F)c2cc(N3CCC4(C=C(c5c(-c6ccc(F)cc6Cl)noc5C5CC5)C4)CC3)ccc2n1` [Example 96, 6-(2-(3-(2-Chloro-4-fluorophenyl)-5-cyclopropylisoxazol-4-yl)-7-azaspiro[3.5]non-1-en-7-yl)-4-(trifluoromethyl)quinoline-2-carboxylic acid] as the compound, how does the EC50 read?
Answer: Its EC50 is 0.869 µM.

Question: For `O=C(O)c1ccn2nc(N3CCC4(C=C(c5c(-c6c(Cl)cccc6Cl)noc5C5CC5)C4)CC3)ncc12` [Example 123, 2-(2-(5-Cyclopropyl-3-(2,6-dichlorophenyl)isoxazol-4-yl)-7-azaspiro[3.5]non-1-en-7-yl)pyrrolo[2,1-f][1,2,4]triazine-5-carboxylic acid], which EC50 is on record?
Answer: Its EC50 is 0.04 µM.

Question: `CCOC(=O)c1cc(C(F)(F)F)c2cc(N3CCC4(C=C(c5c(-c6c(Cl)cncc6Cl)noc5C5CC5)C4)CC3)ccc2n1` [Example 203, Ethyl 6-(2-(5-cyclopropyl-3-(3,5-dichloropyridin-4-yl)isoxazol-4-yl)-7-azaspiro[3.5]non-1-en-7-yl)-4-(trifluoromethyl)quinoline-2-carboxylate] was tested. Which EC50 did it give?
Answer: The EC50 was 0.946 µM.

Question: How did the EC50 turn out when `O=C(O)c1cc2ccc(N3CCC4(C=C(c5c(-c6c(Cl)cncc6Cl)noc5C5CC5)C4)CC3)cc2nn1` [Example 55, 7-(2-(5-Cyclopropyl-3-(3,5-dichloropyridin-4-yl)isoxazol-4-yl)-7-azaspiro[3.5]non-1-en-7-yl)cinnoline-3-carboxylic acid] was run?
Answer: Its EC50 is 0.191 µM.

Question: For `O=C(O)c1ccc(N2CCC3(C=C(c4c(-c5ccccc5Cl)noc4C4CC4)C3)CC2)cc1` [Example 14, 4-(2-(3-(2-Chlorophenyl)-5-cyclopropylisoxazol-4-yl)-7-azaspiro[3.5]non-1-en-7-yl)benzoic acid], which EC50 is on record?
Answer: The EC50 was 0.885 µM.

Question: Which EC50 does the source give for `COc1cc(C(=O)O)nc2ccc(N3CCC4(C=C(c5c(-c6ncccc6Cl)noc5C5CC5)C4)CC3)cc12` [Example 145, 6-(2-(3-(3-Chloropyridin-2-yl)-5-cyclopropylisoxazol-4-yl)-7-azaspiro[3.5]non-1-en-7-yl)-4-methoxyquinoline-2-carboxylic acid] here?
Answer: Its EC50 is 0.16 µM.

Question: With `O=C(O)c1cnc(N2CCC3(C=C(c4c(-c5c(Cl)cccc5Cl)noc4C4CC4)C3)CC2)cc1C(F)(F)F` [Example 116, 6-(2-(5-Cyclopropyl-3-(2,6-dichlorophenyl)isoxazol-4-yl)-7-azaspiro[3.5]non-1-en-7-yl)-4-(trifluoromethyl)nicotinic acid] as the compound, how does the EC50 read?
Answer: The EC50 was 0.135 µM.

Question: For `O=C(O)c1nc(C(F)(F)F)n2cc(N3CCC4(C=C(c5c(-c6ccccc6OC(F)(F)F)noc5C5CC5)C4)CC3)ccc12` [Example 166, 6-(2-(5-Cyclopropyl-3-(2-(trifluoromethoxy)phenyl)isoxazol-4-yl)-7-azaspiro[3.5]non-1-en-7-yl)-3-(trifluoromethyl)imidazo[1,5-a]pyridine-1-carboxylic acid], which EC50 is on record?
Answer: The EC50 was 0.494 µM.
